Reference: PubChem BioAssay AID330 (DTP/NCI, 2004)
Several values for one entry are separate records, joined by “and”; a condition that tells them apart may be missing. Equal entries are not always repeated. Inconclusive results and toxic doses are left out.

Test system: P388 leukemia ip, CD2F1 mice, survival T/C
Experiment: NCI In Vivo Anticancer Drug Screen. Data for tumor model P388 Leukemia (intraperitoneal) in CD2F1 (CDF1) mice
Settings: endpoint: median survival time, higher = longer survival
Summary of the method: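 Mice carrying the transplanted tumor received test compound or vehicle. Survival was recorded in each group, and the value is the treated-group measurement divided by that of the vehicle-treated control group.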

[1] = dose: 50.0 mg/kg/injection, schedule: Q01DX009 (ip), vehicle: saline
[2] = dose: 100.0 mg/kg/injection, schedule: Q01DX009 (ip), vehicle: saline
[3] = dose: 100.0 mg/kg/injection, schedule: Q04DX003 (ip), vehicle: saline with Tween-80
[4] = dose: 7.5 mg/kg/injection, schedule: Q01DX005 (ip), vehicle: Klucel (hydroxypropylcellulose) (HPC)
[5] = dose: 15.0 mg/kg/injection, schedule: Q01DX005 (ip), vehicle: Klucel (hydroxypropylcellulose) (HPC)
[6] = dose: 50.0 mg/kg/injection, schedule: Q01DX009 (ip), vehicle: saline with Tween-80
[7] = dose: 60.0 mg/kg/injection, schedule: Q01DX005 (ip), vehicle: Klucel (hydroxypropylcellulose) (HPC)
[8] = dose: 120.0 mg/kg/injection, schedule: Q01DX005 (ip), vehicle: Klucel (hydroxypropylcellulose) (HPC)

With `CC(=O)SC12CCCN1C(=O)C1(SC(C)=O)CCCN1C2=O` (centres undefined) the T/C (dose: 6.25 mg/kg/injection, schedule: Q01DX009 (ip), vehicle: saline) was 98 % of control, the T/C (dose: 12.5 mg/kg/injection, schedule: Q01DX009 (ip), vehicle: saline) was 104 % of control and the T/C (dose: 25.0 mg/kg/injection, schedule: Q01DX009 (ip), vehicle: saline) was 104 % of control. For the same compound, the T/C [1] was 103 % of control and the T/C [2] was 111 % of control.

In the case of `O=C(SCC(/C=N/Nc1ccc([N+](=O)[O-])cc1[N+](=O)[O-])c1ccccc1)c1ccccc1` (centres undefined), the T/C (dose: 100.0 mg/kg/injection, schedule: Q01DX001 (ip), vehicle: Klucel (hydroxypropylcellulose) (HPC)) is reported as 92 % of control, the T/C (dose: 200.0 mg/kg/injection, schedule: Q01DX001 (ip), vehicle: Klucel (hydroxypropylcellulose) (HPC)) is reported as 89 % of control and the T/C (dose: 400.0 mg/kg/injection, schedule: Q01DX001 (ip), vehicle: Klucel (hydroxypropylcellulose) (HPC)) is reported as 92 % of control.

In the case of `COC1=C(OC)S[C@H]2[C@@H]3C[C@@H]([C@H]4CC=C[C@@H]34)[C@H]2S1`, the T/C (dose: 50.0 mg/kg/injection, schedule: Q01DX005 (ip), vehicle: Klucel (hydroxypropylcellulose) (HPC)) is reported as 100 % of control, the T/C (dose: 100.0 mg/kg/injection, schedule: Q01DX005 (ip), vehicle: Klucel (hydroxypropylcellulose) (HPC)) is reported as 103 % of control and the T/C (dose: 200.0 mg/kg/injection, schedule: Q01DX005 (ip), vehicle: Klucel (hydroxypropylcellulose) (HPC)) is reported as 97 % of control.

With `Cn1c(O)c(N=NC(N)=S)c2ccccc21` the T/C [3] was 95 % of control and the T/C (dose: 200.0 mg/kg/injection, schedule: Q04DX003 (ip), vehicle: saline with Tween-80) was 87 % of control.

In the case of `COC1=CC(=O)C(CCC(C)=O)=CC1=O`, the T/C (dose: 3.75 mg/kg/injection, schedule: Q01DX005 (ip), vehicle: Klucel (hydroxypropylcellulose) (HPC)) is reported as 99 % of control, the T/C [4] is reported as 98 % of control and the T/C [5] is reported as 94 % of control.

For `CN(C)C(=S)S`, the T/C (dose: 50.0 mg/kg/injection, schedule: Q01DX009 (ip), vehicle: Klucel (hydroxypropylcellulose) (HPC)) was 102 % of control, the T/C (dose: 100.0 mg/kg/injection, schedule: Q01DX009 (ip), vehicle: Klucel (hydroxypropylcellulose) (HPC)) was 100 % of control and the T/C (dose: 200.0 mg/kg/injection, schedule: Q01DX009 (ip), vehicle: Klucel (hydroxypropylcellulose) (HPC)) was 105 % of control. For the same compound, the T/C (dose: 400.0 mg/kg/injection, schedule: Q01DX009 (ip), vehicle: Klucel (hydroxypropylcellulose) (HPC)) was 114 % of control.

`CCOC(=O)c1ccc(NC(=O)Nc2nc3ccc(OC)cc3s2)cc1` was tested, and the T/C (dose: 25.0 mg/kg/injection, schedule: Q01DX009 (ip), vehicle: distilled water + Tween-80) was 91 % of control, the T/C (dose: 50.0 mg/kg/injection, schedule: Q01DX009 (ip), vehicle: distilled water + Tween-80) was 89 % of control and the T/C (dose: 100.0 mg/kg/injection, schedule: Q01DX009 (ip), vehicle: distilled water + Tween-80) was 91 % of control. For the same compound, the T/C (dose: 200.0 mg/kg/injection, schedule: Q01DX009 (ip), vehicle: distilled water + Tween-80) was 89 % of control and the T/C (dose: 400.0 mg/kg/injection, schedule: Q01DX009 (ip), vehicle: distilled water + Tween-80) was 89 % of control.

`NC(=S)c1cccc(/C=N/O)n1` was tested, and the T/C (dose: 50.0 mg/kg/injection, schedule: Q04DX003 (ip), vehicle: Klucel (hydroxypropylcellulose) (HPC)) was 104 % of control, the T/C (dose: 100.0 mg/kg/injection, schedule: Q04DX003 (ip), vehicle: Klucel (hydroxypropylcellulose) (HPC)) was 99 % of control and the T/C (dose: 200.0 mg/kg/injection, schedule: Q04DX003 (ip), vehicle: Klucel (hydroxypropylcellulose) (HPC)) was 95 % of control.

With `CN(C)c1ccc2[nH]cc(C(=O)O)c(=O)c2c1` the T/C [4] was 99 % of control, the T/C [5] was 102 % of control and the T/C (dose: 30.0 mg/kg/injection, schedule: Q01DX005 (ip), vehicle: Klucel (hydroxypropylcellulose) (HPC)) was 102 % of control.

In the case of `CCCCCCCCCCCCOP(=O)(CC(=O)NCc1cc(C(C)(C)C)c(O)c(C(C)(C)C)c1)OCCCCCCCCCCCC`, the T/C [6] is reported as 92 % of control, the T/C (dose: 100.0 mg/kg/injection, schedule: Q01DX009 (ip), vehicle: saline with Tween-80) is reported as 92 % of control and the T/C (dose: 200.0 mg/kg/injection, schedule: Q01DX009 (ip), vehicle: saline with Tween-80) is reported as 90 % of control.

`CC(C)(C)N=NNc1ccc(C#N)cc1` was tested, and the T/C (dose: 100.0 mg/kg/injection, schedule: Q04DX002 (ip), vehicle: saline with Tween-80) was 87 % of control, the T/C (dose: 200.0 mg/kg/injection, schedule: Q04DX002 (ip), vehicle: saline with Tween-80) was 88 % of control and the T/C (dose: 400.0 mg/kg/injection, schedule: Q04DX002 (ip), vehicle: saline with Tween-80) was 88 % of control.

For `CN(Cc1cnc2nc(N)nc(N)c2n1)c1ccc(C(=O)NC(CCC(=O)OCc2cc3c(cc2Cl)OCO3)C(=O)OCc2cc3c(cc2Cl)OCO3)cc1` (centres undefined), the T/C (dose: 0.94 mg/kg/injection, schedule: Q01DX005 (ip), vehicle: saline with Tween-80) was 166 % of control, the T/C (dose: 1.87 mg/kg/injection, schedule: Q01DX005 (ip), vehicle: saline with Tween-80) was 184 % of control and 186 % of control and the T/C (dose: 7.5 mg/kg/injection, schedule: Q01DX005 (ip), vehicle: saline with Tween-80) was 99 % of control and 118 % of control.

`O=C1OC(C2OC(=O)C(=O)C2C2CCCCCCC2=O)C(C2CCCCCCC2=O)C1=O` (centres undefined) was tested, and the T/C (dose: 60.0 mg/kg/injection, schedule: Q01DX005 (ip), vehicle: saline with Tween-80) was 102 % of control, the T/C (dose: 120.0 mg/kg/injection, schedule: Q01DX005 (ip), vehicle: saline with Tween-80) was 95 % of control and the T/C (dose: 240.0 mg/kg/injection, schedule: Q01DX005 (ip), vehicle: saline with Tween-80) was 100 % of control.

With `COC(=O)N(C)SN(C)C(=O)O/N=C(\SC)C(=O)N(C)C` the T/C (dose: 1.56 mg/kg/injection, schedule: Q01DX009 (ip), vehicle: saline) was 101 % of control and the T/C (dose: 3.12 mg/kg/injection, schedule: Q01DX009 (ip), vehicle: saline) was 102 % of control.

In the case of `CCOC(=O)c1c(C)noc1NC`, the T/C [7] is reported as 100 % of control, the T/C [8] is reported as 101 % of control and the T/C (dose: 240.0 mg/kg/injection, schedule: Q01DX005 (ip), vehicle: Klucel (hydroxypropylcellulose) (HPC)) is reported as 100 % of control.

For `S=P(NCCNP(=S)(N1CC1)N1CC1)(N1CC1)N1CC1`, the T/C (dose: 25.0 mg/kg/injection, schedule: Q04DX003 (ip), vehicle: saline with Tween-80) was 122 % of control, the T/C (dose: 33.0 mg/kg/injection, schedule: Q04DX003 (ip), vehicle: saline with Tween-80) was 165 % of control and the T/C [6] was 95 % of control. The T/C (dose: 50.0 mg/kg/injection, schedule: Q04DX003 (ip), vehicle: saline with Tween-80) was 170 % of control and 177 % of control, the T/C (dose: 75.0 mg/kg/injection, schedule: Q04DX003 (ip), vehicle: saline with Tween-80) was 90 % of control and the T/C [3] was 86 % of control.

`S=C(N/N=C1/CCCC/C1=N/NC(=S)N1CCOCC1)N1CCOCC1` was tested, and the T/C (dose: 1.56 mg/kg/injection, schedule: Q01DX005 (ip), vehicle: saline with Tween-80) was 101 % of control and 103 % of control and the T/C (dose: 3.12 mg/kg/injection, schedule: Q01DX005 (ip), vehicle: saline with Tween-80) was 99 % of control and 103 % of control and 104 % of control.

`O=C(O)C1(NO)CCCC1` was tested, and the T/C (dose: 100.0 mg/kg/injection, schedule: Q04DX003 (ip), vehicle: saline) was 100 % of control, the T/C (dose: 200.0 mg/kg/injection, schedule: Q04DX003 (ip), vehicle: saline) was 118 % of control and the T/C (dose: 400.0 mg/kg/injection, schedule: Q04DX003 (ip), vehicle: saline) was 95 % of control.

For `C/C(=C(/O)c1ccc(Cl)cc1)c1nc2ccc(Cl)cc2[nH]c1=O`, the T/C [7] was 96 % of control and the T/C [8] was 101 % of control.

`CCN(CC)c1ccc(/C=C(\C#N)C(N)=S)cc1` was tested, and the T/C [1] was 89 % of control, the T/C [2] was 101 % of control and the T/C (dose: 200.0 mg/kg/injection, schedule: Q01DX009 (ip), vehicle: saline) was 105 % of control.

With `Cc1cccc2c1nc(C)c1nc(-c3ccccc3)oc12` the T/C (dose: 6.25 mg/kg/injection, schedule: Q01DX005 (ip), vehicle: saline with Tween-80) was 101 % of control, the T/C (dose: 12.5 mg/kg/injection, schedule: Q01DX005 (ip), vehicle: saline with Tween-80) was 91 % of control and the T/C (dose: 25.0 mg/kg/injection, schedule: Q01DX005 (ip), vehicle: saline with Tween-80) was 90 % of control. The T/C (dose: 50.0 mg/kg/injection, schedule: Q01DX005 (ip), vehicle: saline with Tween-80) was 89 % of control, the T/C (dose: 100.0 mg/kg/injection, schedule: Q01DX005 (ip), vehicle: saline with Tween-80) was 89 % of control and the T/C (dose: 200.0 mg/kg/injection, schedule: Q01DX005 (ip), vehicle: saline with Tween-80) was 94 % of control.

For `O=C1CN(/N=C/c2ccc(-c3ccc(F)cc3)o2)C(=O)N1`, the T/C (dose: 50.0 mg/kg/injection, schedule: Q01DX001 (ip), vehicle: saline with Tween-80) was 103 % of control, the T/C (dose: 100.0 mg/kg/injection, schedule: Q01DX001 (ip), vehicle: saline with Tween-80) was 100 % of control and the T/C (dose: 200.0 mg/kg/injection, schedule: Q01DX001 (ip), vehicle: saline with Tween-80) was 100 % of control. For the same compound, the T/C (dose: 400.0 mg/kg/injection, schedule: Q01DX001 (ip), vehicle: saline with Tween-80) was 100 % of control.
